Assay results reported in patent publication US6831079B1, “Vasopressin agonist formulation and process” (American Cyanamid Company, priority 1999, dated 2004).

Columns and labels:
Vasopressin V2 [1] = molecular target: T1, Vasopressin V2 (Rattus norvegicus, UniProt Q00788); test: Vasopressin V2 agonist effects in normal conscious homozygous Brattleboro rats with central diabetes insipidus; format: in vivo; set-up: from tissue; host or cells: whole living homozygous Brattleboro rat; the receptor is the animal's own; conditions: Brattleboro (BB) rats, 10 mg/kg oral; for Osmolality (% Increase): change in osmolality as percent of control; for Urine Volume (% decrease): vs. control, urine collected six hours
T1 sequence (Q00788 whole entry): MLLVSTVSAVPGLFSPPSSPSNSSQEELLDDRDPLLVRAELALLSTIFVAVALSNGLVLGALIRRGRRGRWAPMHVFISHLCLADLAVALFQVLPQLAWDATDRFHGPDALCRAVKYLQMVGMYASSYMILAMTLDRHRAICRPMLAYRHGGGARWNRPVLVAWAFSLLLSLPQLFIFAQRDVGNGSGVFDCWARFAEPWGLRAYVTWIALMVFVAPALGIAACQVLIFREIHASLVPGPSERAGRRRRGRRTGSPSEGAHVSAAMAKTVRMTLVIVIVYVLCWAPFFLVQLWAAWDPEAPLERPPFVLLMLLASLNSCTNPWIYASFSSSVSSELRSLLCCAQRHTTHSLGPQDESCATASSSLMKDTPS
Excerpt: Vasopressin V2 Agonist Effects of Test Compounds in Normal Conscious Homozygous Brattleboro Rats with Central Diabetes Insipidus
Male or female homozygous Brattleboro rats (Harlan Sprague Dawley, Inc., Indianapolis, Ind.) of 250-350 g body weight were supplied with standard rodent diet (Purina Rodent Lab. Chow 5001) and water ad libitum. On the day of test, rats were placed individually into metabolic cages equipped with devices to separate the feces from the urine and containers for collection of urine. Test compound or reference agent was given at an oral dose of 1 to 10 mg/kg in a volume of 10 ml/kg. The vehicle used was 20% dimethylsulfoxide (DMSO) in 2.5% preboiled corn starch. During the test, rats were provided with water ad libitum. Urine was collected for six hours after dosing of the test compound. At the end of six hours, urine volume was measured. Urinary osmolality was determined using a Fiske One-Ten Osmometer (Fiske Associates, Norwood, Mass., 02062) or an Advanced CRYOMATIC Osmometer, Model 3C2 (Advanced Instruments, Norwood, Mass.). Determinations of Na^+, K^+ and Cl^− ion were carried out using ion specific electrodes in a Beckman SYNCHRON EL-ISE Electrolyte System analyzer. This animal model was mainly used for evaluation of potency and duration of action of the active compounds.

Vasopressin V2 [2] = molecular target: T1, Vasopressin V2; test: Vasopressin V2 agonist effects in normal conscious water-loaded rats; format: in vivo; set-up: from tissue; host or cells: whole living Sprague-Dawley rat; the receptor is the animal's own (renal, by own knowledge); conditions: Sprague-Dawley (CD) rats, 10 mg/kg oral; for Osmolality (% Increase): change in osmolality as percent of control; for Urine Volume (% decrease): vs. control, urine collected four hours
Excerpt: Vasopressin V2 Agonist Effects of Test Compounds in Normal Conscious Water-loaded Rats
Male or female normotensive Sprague-Dawley rats (Charles River Laboratories, Inc., Kingston, N.Y.) of 350-500 g body weight were supplied with standard rodent diet (Purina Rodent Lab. Chow 5001) and water ad libitum. On the day of test, rats were placed individually into metabolic cages equipped with devices to separate the feces from the urine and containers for collection of urine. […] The vehicle used was 20% dimethylsulfoxide (DMSO) in 2.5% preboiled corn starch. Thirty minutes after dosing the test compound, rats were gavaged with water at 30 ml/kg into the stomach using a feeding needle. During the test, rats were not provided with water or food. Urine was collected for four hours after dosing of the test compound. At the end of four hours, urine volume was measured. Urinary osmolality was determined using a Fiske One-Ten Osmometer (Fiske Associates, Norwood, Mass., 02062) or an Advanced CRYOMATIC Osmometer, Model 3C.2 (Advanced Instruments, Norwood, Mass.). Determinations of Na^+, K^+ and Cl^− ion were carried out using ion specific electrodes in a Beckman SYNCHRON EL-ISE Electrolyte System analyzer. The urinary osmolality should increase proportionally. In the screening test, two rats were used for each compound. If the difference in the urine volume of the two rats was greater than 50%, a third rat was used.

SMILES	Osmolality (% Increase) (Vasopressin V2 [1]) [%]	Urine Volume (% decrease) (Vasopressin V2 [1]) [%]	melting point	Osmolality (% Increase) (Vasopressin V2 [2]) [%]	Urine Volume (% decrease) (Vasopressin V2 [2]) [%]
CC(=O)n1ccc(-c2ccc(C(=O)N3Cc4cccn4Cc4ccccc43)cc2)n1 [Example 30, 1-{3-[4-(5H,11H-Pyrrolo[2,1-c][1,4]benzodiazepine-10-carbonyl)-phenyl]-pyrazol-1-yl}-ethanone]	334	81	–	–	–
O=C(c1ccc(-c2ccn(C(=O)c3cccs3)n2)cc1)N1Cc2cccn2Cc2ccccc21 [Example 34, (5H,11-Pyrrolo[2,1-c][1,4]benzodiazepin-10-yl)-{4-[1-(thiophene-2-carbonyl)-1H-pyrazoly-3-yl]phenyl}-methanone]	407	76	–	–	–
Cc1ccccc1C(=O)n1ccc(-c2ccc(C(=O)N3Cc4cccn4Cc4ccccc43)cc2)n1 [Example 36, {4-[1-(2-Methyl-benzoyl)-1H-pyrazol-3-yl]-phenyl}-(5H,11H-pyrrolo[2,1-c][1,4]benzodiazepin-10-yl)-methanone]	164	66	170 to 173 °C	–	–
O=C(c1ccc(-c2ccn(C(=O)c3ccc(Cl)cc3Cl)n2)cc1)N1Cc2cccn2Cc2ccccc21 [Example 38, {4-[1-(2,4-Dichloro-benzoyl)-1H-pyrazol-3-yl]-phenyl}-(5H,11H-pyrrolo[2,1-c][1,4]benzodiazepin-10-yl)-methanone]	256	66	180 to 182 °C	–	–
Cn1cc(-c2ccc(C(=O)N3Cc4cccn4Cc4ccccc43)cc2)cn1 [Example 55, [4-(1-Methyl-1H-pyrazol-4-yl)-phenyl]-(5H,11H-pyrrolo[2,1-c][1,4]-benzodiazepin-10-yl)-methanone]	–	–	200 to 201 °C	164	80
Cn1cc(-c2ccc(C(=O)N3Cc4cccn4Cc4ccccc43)cn2)cn1 [Example 57, [6-(1-Methyl-1H-pyrazol-4-yl)-pyridin-3-yl]-(5H,11H-pyrrolo[2,1-c][1,4]-benzodiazepin-10-yl)-methanone]	–	–	173 to 175 °C	288	77
Cc1cnn(-c2ccc(C(=O)N3Cc4cccn4Cc4ccccc43)cc2)c1 [Example 60, [4-(4-Methyl-pyrazol-1-yl)-phenyl]-(5H,11H-pyrrolo[2,1-c][1,4]-benzodiazepin-10-yl)-methanone]	–	–	179 to 181 °C	165	54
O=C(c1ccc(-n2ccc(C(F)(F)F)n2)cc1)N1Cc2cccn2Cc2ccccc21 [Example 62, (5H,11H-Pyrrolo[2,1-c][1,4]benzodiazepin-10-yl)-[4-(3-trifluoromethyl-pyrazol-1-yl)-phenyl]-methanone]	–	–	166 to 167 °C	150	22
Cc1cn(-c2ccc(C(=O)N3Cc4cccn4Cc4ccccc43)cc2)cn1 [Example 64, [4-(4-Methyl-imidazol-1-yl)-phenyl]-(5H,11H-pyrrolo[2,1-c][1,4]-benzodiazepin-10-yl)-methanone]	–	–	140 to 145 °C	349	79
Cn1ccc(-c2ccc(C(=O)N3Cc4cccn4Cc4ccccc43)c(Cl)c2)n1 [Example 71, [2-Chloro-4-(1-methyl-1H-pyrazol-3-yl)-phenyl]-(5H,11H-pyrrolo[2,1-c]-[1,4]benzodiazepine-10-yl)-methanone]	–	–	148.5 to 150 °C	264	84
O=C(O)c1ccc(C(=O)N2Cc3cccn3Cc3ccccc32)c(Cl)c1 [Example 78, 3-Chloro-4-(5H,11H-Pyrrolo[2,1-c][1,4]benzodiazepine-10-carbonyl)-benzoic Acid]	–	–	198 to 199 °C	115	21
NC(=O)c1ccc(C(=O)N2Cc3cccn3Cc3ccccc32)c(Cl)c1 [Example 79, 3-Chloro-4-(5H,11H-pyrrolo[2,1-c][1,4]benzodiazepine-10-carbonyl)-benzamide]	–	–	211 to 212 °C	123	38
O=C(c1ccc(-c2ncn[nH]2)cc1Cl)N1Cc2cccn2Cc2ccccc21 [Example 83, [2-Chloro-4-(2H-1,2,4-triazol-3-yl)-phenyl]-(5H,11H-pyrrolo[2,1-c][1,4]-benzodiazepin-10-yl)-methanone]	–	–	174 to 177 °C	442	85
O=C(c1ccc(-c2nnn[nH]2)cc1Cl)N1Cc2cccn2Cc2ccccc21 [Example 86, [2-Chloro-4-(1H-tetrazol-5-yl)-phenyl]-(5H,11H-pyrrolo[2,1-c][1,4]benzodiazepin-10-yl)-methanone]	–	–	218 to 220 °C	86	5
Cc1ccn(-c2ccc(C(=O)N3Cc4ccc(CN(C)C)n4Cc4ccccc43)c(Cl)c2)n1 [Example 87, [2-Chloro-4-(3-methyl-pyrazol-1-yl)-phenyl]-(3-dimethylaminomethyl-5H,11H-pyrrolo[2,1-c][1,4]benzodiazepin-10-yl)-methanone]	–	–	100 to 102 °C	214	71
Cc1ccn(-c2ccc(C(=O)N3Cc4ccc(Br)n4Cc4ccccc43)c(Cl)c2)n1 [Example 88, (3-Bromo-5H,11H-pyrrolo[2,1-c][1,4]benzodiazepin-10-yl)-[2-chloro-4-(3-methyl-pyrazol-1-yl)-phenyl]-methanone]	–	–	148 to 149 °C (dec.)	226	68
Cc1ccn(-c2ccc(C(=O)N3Cc4cccn4Cc4ccccc43)c(F)c2)n1 [Example 92, [2-Fluoro-4-(3-methyl-pyrazol-1-yl)-phenyl]-(5H,11H-pyrrolo[2,1-c][1,4]-benzodiazepin-10-yl)-methanone]	–	–	192 to 193 °C	454	69
Cc1ccn(-c2ccc(C(=O)O)c(Cl)c2)n1 [Example 97, 2-Chloro-4-(3-methyl-1H-pyrazol-1-yl)-benzoic Acid]	–	–	192 to 193 °C	106	3
O=C(c1ccc(-n2cccn2)nc1Cl)N1Cc2cccn2Cc2ccccc21 [Example 99, (2-Chloro-6-pyrazol-1-yl-pyridin-3-yl)-(5H,11H-pyrrolo[2,1-c][1,4]benzodiazepin-10-yl)-methanone]	–	–	133 to 135 °C	205	43
Cc1ccn(-c2ccc(C(=O)N3Cc4cccn4Cc4ccccc43)c(Cl)n2)n1 [Example 100, [2-Chloro-6-(3-methylpyrazol-1-yl)-pyridin-3-yl]-(5H,11H-pyrrolo[2,1-c][1,4]benzodiazepin-10-yl)-methanone]	–	–	171 to 172 °C	248	24
Cc1cnn(-c2ccc(C(=O)N3Cc4cccn4Cc4ccccc43)c(Cl)n2)c1 [Example 101, [2-Chloro-6-(4-methylpyrazol-1-yl)-pyridin-3-yl](5H,11H-pyrrolo[2,1-c][1,4]benzodiazepin-10-yl)-methanone]	–	–	155 to 156 °C	376	76
CC(=O)c1ccc(C(=O)N2Cc3cccn3Cc3ccccc32)c(Cl)c1 [Example 121, 1-[4-(5H,11H-pyrrolo[2,1-c][1,4]benzodiazepine-10-carbonyl)-3-chlorophenyl]-ethanone]	–	–	98 to 100 °C	155	22
